Consider 22 compounds from US10501421B1, “Substituted benzimidazoles as modulators of Ras signaling” (VANDERBILT UNIVERSITY, priority 2017, dated 2019).

Broadly, the EC50 is the midpoint of the concentration-response curve. A word on the Ki: it is a measure of affinity in units of concentration, obtained from inhibition or displacement.

Test [1] deals with Ras GEF SOS (Son of Sevenless) (Homo sapiens, UniProt Q07889). Description: SOS-mediated nucleotide exchange on Ras (BODIPY-GDP fluorescence). It counts as biochemical. The following applies: SOS-mediated exchange of BODIPY-GDP for GTP on Ras. Summed up:
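Ras loaded with BODIPY-GDP was mixed in buffer with test compound, then GTP and SOS. Fluorescence change from labeled GDP/GTP exchange was followed over time, and rates came from single-exponential fits. EC50 came from a four-parameter fit of mean rate against compound concentration.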

For test [2], the target named is T1, Son of Sevenless (SOS) (Homo sapiens, UniProt Q07889).
T1 sequence (Q07889 564-1049 limits assumed): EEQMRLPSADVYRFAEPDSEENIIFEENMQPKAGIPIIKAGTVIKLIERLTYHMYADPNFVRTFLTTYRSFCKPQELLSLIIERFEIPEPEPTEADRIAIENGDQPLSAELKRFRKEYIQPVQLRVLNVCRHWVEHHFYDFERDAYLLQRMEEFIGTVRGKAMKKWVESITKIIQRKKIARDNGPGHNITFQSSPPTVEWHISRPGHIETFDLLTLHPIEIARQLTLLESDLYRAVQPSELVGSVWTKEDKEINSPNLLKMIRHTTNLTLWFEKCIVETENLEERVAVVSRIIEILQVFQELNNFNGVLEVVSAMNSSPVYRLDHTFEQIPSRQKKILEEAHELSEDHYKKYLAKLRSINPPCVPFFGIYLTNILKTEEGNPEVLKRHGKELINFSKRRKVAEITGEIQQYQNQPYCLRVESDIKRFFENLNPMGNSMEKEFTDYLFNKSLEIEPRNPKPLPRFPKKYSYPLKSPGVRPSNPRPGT
Description: Binding to SOS, fluorescence polarization anisotropy (FPA) probe displacement. The following applies: displacement of FITC-conjugated probe (Example 285), affinity calculated from IC50. The gist of the method: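 A FITC-conjugated probe compound was incubated with SOS in buffer, and its displacement was tracked as a change in fluorescence anisotropy across a test-compound dose range. IC50 came from a four-parameter variable-slope fit, and binding affinity was calculated from it.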

The test system of test [3] is H727 lung cancer cell lines (G12V K-Ras mutation). Description: Inhibition of cancer cell proliferation (CellTiter-Glo). It counts as cell-based. The settings on record: Homo sapiens, NCI-H727, 72 h, read-out: Cell proliferation activity (H727 cancer cell line proliferation IC50). As for the experimental part:
Compounds of the present invention were measured for their ability to kill H727 lung cancer cell lines, which contain a G12V K-Ras mutation. Cell proliferation experiments were conducted in 96-well plates. Cells were plated at 1000 cells/well, incubated overnight, followed by treatment with a dose range of compound for 3 days at 37° C. Cell proliferation was assessed using a CellTiter-Glo assay (Promega) according to the manufacturer's protocol. Data were normalized to DMSO control. IC50 values were determined using a four-parameter dose-response (variable slope) equation. These assays are performed in a manner analogous to the assay disclosed in: Burns, M. C.; Sun, Q.; Daniels, R. N.; Camper, D. V.; Kennedy, J. P.; Phan, J.; Olejniczak, E. O.; Lee, T.; Waterson, A. G.; Rossanese, O. W.; Fesik, S. W. “Approach for targeting Ras with small molecules that activate SOS-mediated nucleotide exchange” Proc. Natl. Acad. Sci. 2014; 11(9): 3401-3406. PMCID: PMC3948241.

The mark [4] stands for this setting: H727 cells, 3 days treatment, CellTiter-Glo.

The structures appear in SMILES notation. Where a name gives a salt, the structure may show the parent alone. Read-outs that look alike come from different tables or passages of the source.

Chain of Ras GEF SOS (Son of Sevenless) (P01112 1-166 partner limits assumed, one chain of several): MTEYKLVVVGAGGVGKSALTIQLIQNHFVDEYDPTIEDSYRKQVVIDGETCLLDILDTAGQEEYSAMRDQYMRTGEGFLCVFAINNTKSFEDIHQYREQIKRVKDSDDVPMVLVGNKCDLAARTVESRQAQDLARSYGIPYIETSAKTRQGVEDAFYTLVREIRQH

With `C=C[C@H](N)c1cc(C)cc2c1nc(N1CCNCC1)n2Cc1cc(C)c(F)c(C)c1` [Example 162, (S)-1-(1-(4-fluoro-3,5-dimethylbenzyl)-6-methyl-2-(piperazin-1-yl)-1H-benzo[d]imidazol-4-yl)prop-2-en-1-amine trifluoroacetate], the EC50 in test [1] lay in the range of 1 to 5 µM. Further, in test [2], the Ki was 1 to 5 µM. The IC50 in test [3] lay in the range of 1 to 5 µM.

`CCC[C@H](N)c1cc(Cl)cc2c1nc(N1CCNCC1)n2Cc1cc(C)c(F)c(C)c1` [Example 164, (S)-1-(6-chloro-1-(4-fluoro-3,5-dimethylbenzyl)-2-(piperazin-1-yl)-1H-benzo[d]imidazol-4-yl)butan-1-amine trifluoroacetate] returned an EC50 in test [1] of 1 to 5 µM. For the same compound, the Ki in test [2] was below 0.5 µM. Further, the IC50 in test [3] was below 1 µM.

For `Fc1ccc(Cn2c(N3CCNCC3)nc3c(-c4ccccc4Cl)cccc32)cc1Cl` [Example 84, 1-(3-chloro-4-fluorobenzyl)-4-(2-chlorophenyl)-2-(piperazin-1-yl)-1H-benzo[d]imidazole trifluoroacetate], the EC50 in test [1] is 1 to 5 µM. Moreover, the IC50 in test [3] was 1 to 5 µM.

In test [1], `Cc1cc(Cn2c(N3CCCC(N)C3)nc3ccc(OC(C)C(F)(F)F)nc32)ccc1F` (stereo not shown) [Example 261, 1-(3-(4-fluoro-3-methylbenzyl)-5-((1,1,1-trifluoroprpan-2-yl)oxy)-3H-imidazo[4,5-b]pyridin-2-yl)piperidin-3-amine] displayed an EC50 of 30 to 100 µM. Also, the IC50 in test [3] (setting [4]) was below 1 µM.

For the compound `Cc1nn(C)c(C)c1-c1cccc2c1nc(N1CCNCC1)n2Cc1ccc(F)c(Cl)c1` [Example 85, 1-(3-chloro-4-fluorobenzyl)-2-(piperazin-1-yl)-4-(1,3,5-trimethyl-1H-pyrazol-4-yl)-1H-benzo[d]imidazole trifluoroacetate], the EC50 in test [1] was in the range of 1 to 5 µM. In addition, the IC50 in test [3] lay within 5 to 20 µM.

Turning to `Cc1cc2c(nc(N3CCNCC3)n2Cc2cc(C)c(F)c(C)c2)c(CO)c1C` [Example 138, (1-(4-fluoro-3,5-dimethylbenzyl)-5,6-dimethyl-2-(piperazin-1-yl)-1H-benzo[d]imidazol-4-yl)methanol trifluoroacetate], the EC50 in test [1] was in the range of 1 to 5 µM. In addition, the IC50 in test [3] was 5 to 20 µM.

As to `Cc1cc(CNCC(C)C)c2nc(N3CCNCC3)n(Cc3cc(C)c(F)c(C)c3)c2c1` [Example 133, N-((1-(4-fluoro-3,5-dimethylbenzyl)-6-methyl-2-(piperazin-1-yl)-1H-benzo[d]imidazol-4-yl)methyl)-2-methylpropan-1-amine trifluoroacetate], in test [1], the EC50 lay within 1 to 5 µM. Also, the IC50 in test [3] lay within 1 to 5 µM.

Compound `Cn1nccc1-c1cccc2c1nc(N1CCNCC1)n2Cc1ccc(F)c(Cl)c1` [Example 86, 1-(3-chloro-4-fluorobenzyl)-4-(1-methyl-1H-pyrazol-5-yl)-2-(piperazin-1-yl)-1H-benzo[d]imidazole trifluoroacetate] registered an EC50 in test [1] of 1 to 5 µM. In addition, in test [3], the IC50 was in the range of 5 to 20 µM.

As to `CC[C@H](N)c1cc(Cl)cc2c1nc(NCCN)n2Cc1cc(C)c(F)c(C)c1` [Example 158, (S)—N^1-(4-(1-aminopropyl)-6-chloro-1-(4-fluoro-3,5-dimethylbenzyl)-1H-benzo[d]imidazol-2-yl)ethane-1,2-diamine trifluoroacetate], the EC50 in test [1] was 1 to 5 µM. In addition, in test [3], the IC50 was 5 to 20 µM.

`CC(C)c1ccccc1-c1cccc2c1nc(N1CCNCC1)n2Cc1cc(F)cc(F)c1` [Example 97, 1-(3,5-difluorobenzyl)-4-(2-isopropylphenyl)-2-(piperazin-1-yl)-1H-benzo[d]imidazole]: in test [1], the EC50 lay within 1 to 5 µM. Also, in test [3] (setting [4]), the IC50 was below 1 µM.

`Fc1ccc(Cn2c(N3CCNCC3)nc3c(-c4ccc(C(F)(F)F)cc4)cccc32)cc1Cl` [Example 87, 1-(3-chloro-4-fluorobenzyl)-2-(piperazin-1-yl)-4-(4-(trifluoromethyl)phenyl)-1H-benzo[d]imidazole] returned an EC50 in test [1] of 5 to 30 µM. The IC50 in test [3] (setting [4]) fell in the range of 5 to 20 µM.

`Cc1cc(Cn2c(N3CCNCC3)nc3c(C4NCCc5c4[nH]c4ccccc54)cc(Cl)cc32)cc(C)c1F` (stereo not shown) [Example 140, 1-(6-chloro-1-(4-fluoro-3,5-dimethylbenzyl)-2-(piperazin-1-yl)-1H-benzo[d]imidazol-4-yl)-2,3,4,9-tetrahydro-1H-pyrido[3,4-b]indole trifluoroacetate]: in test [1], the concentration giving a half-maximal response (EC50) was 1 to 5 µM. The IC50 in test [3] fell in the range of 1 to 5 µM.

`Cc1ccccc1-c1cccc2c1nc(N1CCNCC1)n2Cc1ccc(F)c(Cl)c1` [Example 79, 1-(3-chloro-4-fluorobenzyl)-2-(piperazin-1-yl)-4-(o-tolyl)-1H-benzo[d]imidazole trifluoroacetate]: the EC50 in test [1] was in the range of 1 to 5 µM. Moreover, in test [3], the IC50 was in the range of 5 to 20 µM.

In test [1], `CCNCc1c(C)c(C)cc2c1nc(N1CCNCC1)n2Cc1cc(C)c(F)c(C)c1` [Example 131, N-((1-(4-fluoro-3,5-dimethylbenzyl)-5,6-dimethyl-2-(piperazin-1-yl)-1H-benzo[d]imidazol-4-yl)methyl)ethanamine trifluoroacetate] registered an EC50 of 1 to 5 µM. Further, in test [3], the IC50 was below 1 µM.

`CC[C@H](N)c1cc(Cl)cc2c1nc(N1CCNCC1)n2Cc1cc(C)c(F)c(C)c1` [Example 157, (S)-1-(6-chloro-1-(4-fluoro-3,5-dimethylbenzyl)-2-(piperazin-1-yl)-1H-benzo[d]imidazol-4-yl)propan-1-amine trifluoroacetate] displayed an EC50 in test [1] below 1 µM. Moreover, in test [3], the IC50 lay in the range of 1 to 5 µM.

In test [1], `CC(C)c1ccccc1-c1cccc2c1nc(N1CCNCC1)n2Cc1ccc(C(F)(F)F)cc1` [Example 95, 4-(2-isopropylphenyl)-2-(piperazin-1-yl)-1-(4-(trifluoromethyl)benzyl)-1H-benzo[d]imidazole] showed an EC50 of 1 to 5 µM. The IC50 in test [3] (setting [4]) was below 1 µM.

For `Cc1cc(Cn2c(NCC3CNC3)nc3ccc(OCCN(C)C)nc32)ccc1F` [Example 263, N-(azetidin-3-ylmethyl)-5-(2-(dimethylamino)ethoxy)-3-(4-fluoro-3-methylbenzyl)-3H-imidazo[4,5-b]pyridin-2-amine], the EC50 in test [1] lay in the range of 30 to 100 µM. In addition, the IC50 in test [3] (setting [4]) lay within 5 to 20 µM.

In test [1], `Cc1cc(Cn2c(NCCN)nc3c(Cl)nccc32)ccc1F` [Example 223, N^1-(4-chloro-1-(4-fluoro-3-methylbenzyl)-1H-imidazo[4,5-c]pyridin-2-yl)ethane-1,2-diamine] had an EC50 of 5 to 30 µM. Moreover, the IC50 in test [3] (setting [4]) is above 20 µM.

Consider `Cc1cc(Cn2c(N3CCNCC3)nc3ccc(OC(C)C(F)(F)F)nc32)ccc1F` (stereo not shown) [Example 258, 3-(4-fluoro-3-methylbenzyl)-2-(piperazin-1-yl)-5-((1,1,1-trifluoropropan-2-yl)oxy)-3H-imidazo[4,5-b]pyridine], for which the EC50 in test [1] was in the range of 5 to 30 µM. Also, the IC50 in test [3] (setting [4]) was 1 to 5 µM.

`COc1ccc(-c2cccc3c2nc(N2CCNCC2)n3Cc2ccc(C(F)(F)F)cc2)cc1OC` [Example 91, 4-(3,4-dimethoxyphenyl)-2-(piperazin-1-yl)-1-(4-(trifluoromethyl)benzyl)-1H-benzo[d]imidazole] had an EC50 in test [1] of 5 to 30 µM. In test [3] (setting [4]), the IC50 is 1 to 5 µM.

In the case of `C=C[C@H](N)c1cc(Cl)cc2c1nc(N1CCNCC1)n2Cc1cc(C)c(F)c(C)c1` [Example 155, (S)-1-(6-chloro-1-(4-fluoro-3,5-dimethylbenzyl)-2-(piperazin-1-yl)-1H-benzo[d]imidazol-4-yl)prop-2-en-1-amine trifluoroacetate], the EC50 in test [1] was below 1 µM. The IC50 in test [3] was below 1 µM.

Compound `Cc1cc(Cn2c(N3CC(CN)C3)nc3ccc(OCCN(C)C)nc32)ccc1F` [Example 262, 2-((2-(3-(aminomethyl)azetidin-1-yl)-3-(4-fluoro-3-methylbenzyl)-3H-imidazo[4,5-b]pyridin-5-yl)oxy)-N,N-dimethylethan-1-amine] yielded an EC50 in test [1] of 30 to 100 µM. Besides, the IC50 in test [3] (setting [4]) was in the range of 5 to 20 µM.
